The supplement of paper PMC10307832

Columns and labels:
Assay in all cases: relative viability (nuclei count vs DMSO), 5 days (fraction); higher = more cells survive
BMX-IN-1 + Crizotinib = compound: C=CC(=O)Nc1cc(-n2c(=O)ccc3cnc4ccc(-c5ccc(NS(C)(=O)=O)cc5)cc4c32)ccc1C [BMX-IN-1] + C[C@@H](Oc1cc(-c2cnn(C3CCNCC3)c2)cnc1N)c1c(Cl)ccc(F)c1Cl [Crizotinib] (partner 1 µM)
In short: (§1)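 A single step with final 0.05% Triton X-100, 1% formaldehyde and 1 ug/ml Hoechst fixed the cells and stained nuclei 5 days after treatment. Lung cancer cell lines in 1536-well plates had been treated by pin tool the day after seeding with one drug alone or a fixed anchor-drug dose plus five library-drug doses (not always all listed) in √10 steps, and nuclei were counted on 4× images. Relative viability is the ratio of nuclei in treated wells to nuclei in vehicle wells, taken as the median of duplicate plates.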

Ibrutinib + Linsitinib = compound: C=CC(=O)N1CCC[C@@H](n2nc(-c3ccc(Oc4ccccc4)cc3)c3c(N)ncnc32)C1 [Ibrutinib] + C[C@]1(O)C[C@@H](c2nc(-c3ccc4ccc(-c5ccccc5)nc4c3)c3c(N)nccn32)C1 [Linsitinib] (partner 1 µM)
In short: as §1

BMX-IN-1 + Navitoclax = compound: C=CC(=O)Nc1cc(-n2c(=O)ccc3cnc4ccc(-c5ccc(NS(C)(=O)=O)cc5)cc4c32)ccc1C [BMX-IN-1] + CC1(C)CCC(c2ccc(Cl)cc2)=C(CN2CCN(c3ccc(C(=O)NS(=O)(=O)c4ccc(N[C@H](CCN5CCOCC5)CSc5ccccc5)c(S(=O)(=O)C(F)(F)F)c4)cc3)CC2)C1 [Navitoclax] (partner 0.5 µM)
In short: as §1

Ibrutinib + Palbociclib = compound: C=CC(=O)N1CCC[C@@H](n2nc(-c3ccc(Oc4ccccc4)cc3)c3c(N)ncnc32)C1 [Ibrutinib] + CC(=O)c1c(C)c2cnc(Nc3ccc(N4CCNCC4)cn3)nc2n(C2CCCC2)c1=O [Palbociclib] (partner 0.5 µM)
In short: as §1

Cell Line	relative viability (BMX-IN-1 + Crizotinib; first compound 0.02 µM)	relative viability (BMX-IN-1 + Crizotinib; first compound 0.2 µM)	relative viability (BMX-IN-1 + Crizotinib; first compound 0.6325 µM)	relative viability (BMX-IN-1 + Crizotinib; first compound 2 µM)	relative viability (Ibrutinib + Linsitinib; first compound 0.005 µM)	relative viability (Ibrutinib + Linsitinib; first compound 0.01581 µM)	relative viability (Ibrutinib + Linsitinib; first compound 0.05 µM)	relative viability (Ibrutinib + Linsitinib; first compound 0.1581 µM)	relative viability (Ibrutinib + Linsitinib; first compound 0.5 µM)	relative viability (BMX-IN-1 + Navitoclax; first compound 0.02 µM)	relative viability (BMX-IN-1 + Navitoclax; first compound 0.2 µM)	relative viability (BMX-IN-1 + Navitoclax; first compound 0.6325 µM)	relative viability (BMX-IN-1 + Navitoclax; first compound 2 µM)	relative viability (Ibrutinib + Palbociclib; first compound 0.005 µM)	relative viability (Ibrutinib + Palbociclib; first compound 0.01581 µM)	relative viability (Ibrutinib + Palbociclib; first compound 0.05 µM)	relative viability (Ibrutinib + Palbociclib; first compound 0.1581 µM)	relative viability (Ibrutinib + Palbociclib; first compound 0.5 µM)
HCC-44	0.907	0.834	0.944	0.889	0.682	0.591	0.673	0.732	0.645	1.25	1.16	1.13	0.989	0.982	0.977	1.03	0.979	0.92
HCC-78	0.379	0.347	0.335	0.405	0.555	0.489	0.432	0.485	0.33	0.859	0.851	1	0.863	0.481	0.472	0.507	0.42	0.414
HCC-366	0.582	1.01	0.586	0.703	0.634	0.614	0.662	0.51	0.614	1.54	1.29	1.15	1.05	0.439	0.405	0.38	0.385	0.428
HCC-827	0.972	0.939	0.939	0.97	1.01	0.947	1.01	0.854	0.32	1.02	0.992	1	1.03	0.471	0.438	0.453	0.475	0.17
IA-LM	0.875	0.865	0.99	0.772	0.397	0.658	0.453	0.512	0.56	0.937	0.796	0.807	0.722					
LCLC-103H	1.19	1.05	1.07	1.07	1.28	1.16	1.09	1.1	1.03					0.498	0.506	0.528	0.481	0.469
NCI-H358	0.498	0.611	0.538	0.512	0.563	0.394	0.355	0.743	0.28					0.121	0.169		0.189	0.11
NCI-H522														0.865	1.05	0.861	1.01	0.664
NCI-H596	1.13	1.18	1.03	0.827	1.13	0.946	0.99	0.996	0.841	0.906	1.08	1.07	0.816					
NCI-H650	0.881	0.863	0.707	0.774		0.688		1.19	0.889					0.399	0.303	0.415	0.414	0.358
NCI-H661		0.96	1.14	0.976	0.477	0.48	0.543	0.546	0.355					0.365	0.337	0.332	0.366	0.304
NCI-H1299	0.798	1.03	0.97	1.01	0.497	0.993	0.961	0.966	1.03	1.08	1.05	1.05	1.06					
NCI-H1395					1.16	0.968	0.995	1.45	1.13	0.972	1.09	1.07	1.14	0.55	0.672	0.648	0.623	0.612
NCI-H1563	0.794	0.887	0.86	0.761	1.37	1.08	1.33	1.16	1.06									
NCI-H1648														0.279	0.27	0.259	0.297	0.252
NCI-H1650	1.15	1.11	1.03	0.918						1.16	1.25	1.36	1.25	0.382	0.305	0.314	0.436	0.243
NCI-H1703	0.821	0.952	0.631	0.56	0.178	0.676	0.632	0.467	0.627	1.25	1.3	1.29	0.942					
NCI-H1793						0.66	0.652	0.797	0.509	0.454	0.363	0.483	0.38	0.251	0.247	0.238	0.31	0.243
NCI-H2170	1.5	1.27	1.1	1.38						0.742	0.634	0.689	0.623	0.329	0.296	0.259	0.385	0.139
NCI-H2342														0.495	0.519	0.496	0.486	0.502
SW 900														0.572	0.437	0.552	0.511	0.479
